# From patent US4623662A, “Antiatherosclerotic ureas and thioureas” (American Cyanamid Company, priority 1985, dated 1986)
# Biological target: T1, fatty acyl CoA: cholesterol acyl transferase (ACAT) (Rattus norvegicus, UniProt O70536)
# T1 construct: The supernatant, containing the microsomal fraction, served as the source of the cholesterol-esterifying enzyme; from tissue; host or cells: rat adrenals, supernatant of 1,000 x g centrifugation containing the microsomal fraction
# T1 sequence (O70536 1-545): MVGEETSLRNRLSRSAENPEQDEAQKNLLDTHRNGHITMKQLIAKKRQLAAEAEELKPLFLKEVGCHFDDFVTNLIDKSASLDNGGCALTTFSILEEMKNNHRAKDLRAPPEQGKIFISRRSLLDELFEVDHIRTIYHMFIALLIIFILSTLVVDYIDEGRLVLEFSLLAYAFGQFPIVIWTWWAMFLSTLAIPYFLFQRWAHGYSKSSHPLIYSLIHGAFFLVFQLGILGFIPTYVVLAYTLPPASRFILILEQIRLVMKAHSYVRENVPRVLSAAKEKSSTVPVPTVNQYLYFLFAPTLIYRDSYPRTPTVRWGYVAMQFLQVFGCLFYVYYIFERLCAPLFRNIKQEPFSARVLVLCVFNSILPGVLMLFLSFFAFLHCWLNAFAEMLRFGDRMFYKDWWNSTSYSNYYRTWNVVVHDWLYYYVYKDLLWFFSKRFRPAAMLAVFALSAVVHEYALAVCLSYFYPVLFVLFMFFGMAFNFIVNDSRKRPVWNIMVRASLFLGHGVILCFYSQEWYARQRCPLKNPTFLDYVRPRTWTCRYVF
# Assay: Inhibition of fatty acyl CoA:cholesterol acyl transferase (ACAT), rat adrenal enzyme
# Assay type: biochemical
# Conditions: not given
# Experimental: The compounds of the present invention were assayed for two types of biological activity related to their potential use as antiatherosclerotic agents. Compounds were tested in vitro for the ability to inhibit the enzyme fatty acyl CoA: cholesterol acyl transferase (ACAT) and in vivo for serum hypolipidemic activity as meausred by the ability to inhibit lipid absorption in rats.
# The compounds were tested for their ability to inhibit ACAT according to the following procedure: rat adrenals were homogenized in 0.2M monobasic potassium phosphate buffer, pH 7.4, and centrifuged at 1,000 times gravity for 15 minutes at 5° C. The supernatant, containing the microsomal fraction, served as the source of the cholesterol-esterifying enzyme, fatty acyl CoA:cholesterol acyl transferase (ACAT). A mixture comprising 50 parts of adrenal supernatant, 10 parts of bovine serum albumin (50 mg/ml), 3 parts of test compound (final concentration 5.2 μg/ml), and 500 parts of buffer was preincubated at 37° C. for 10 minutes. After treatment with 20 parts of oleoyl CoA (^14 C-0.4 μCi), the mixture was incubated at 37° C. for 10 minutes. A control mixture, omitting the test compound, was prepared and treated in the same manner. The lipids from the incubation mixture was extracted into an organic solvent and separated by thin-layer chromatography. The cholesteryl ester fraction was counted in a scintillation counter. This procedure is a modification of that described by Hashimoto, et al., Life Scie., 12 (Part II), 1-12 (1973).
# Compounds which produced statistically significant inhibition of the ACAT enzyme are considered to be active.
# In addition to the above described test and the results given in terms of percent inhibition, various compounds of this invention were tested by the same procedure at several concentrations. The results of this test are given in Table II in terms of IC50 (μM), that concentration which produced 50% inhibition of the ACAT enzyme.
row,Compound,inhibition at 5.2 µg/mL
1,"CCCCc1ccc(CN(CCCCCCOS(C)(=O)=O)C(=O)Nc2c(Cl)cc(Cl)cc2Cl)cc1 [1-[(4-Butylphenyl)methyl]-1-[6-(methylsulfonyloxy)-hexyl]-3-(2,4,6-trichlorophenyl)urea]",90%
2,"Cc1ccc(CN(CCc2cccc(F)c2)C(=O)Nc2ccc(C)cc2C)cc1 [1-[2-(3-Fluorophenyl)ethyl]-1-(4-methylbenzyl)-3-(2,4-dimethylphenyl)urea]",80.5%
3,"CC(C)(C)CCN(Cc1ccc(Cl)cc1)C(=O)Nc1cccc(C(F)(F)F)c1 [1-(3,3-Dimethylbutyl)-1-(4-chlorobenzyl)-3-(3-trifluoromethylphenyl)urea]",90%
4,"CC(C)(C)CCN(Cc1ccc(CC(C)(C)C)cc1)C(=O)Nc1c(F)cc(F)cc1F [1-[3,3-dimethylbutyl]-1-[[4-(2,2-dimethylpropyl)phenyl]methyl]-3-[2,4,6-trifluorophenyl]urea]",90%
5,"CC(C)(C)CCN(Cc1ccc(Cl)cc1)C(=O)Nc1ccc(F)cc1F [1-(3,3-Dimethylbutyl)-1-(4-chlorobenzyl)-3-(2,4-difluorophenyl)urea]",90%

# Same assay, conditions: rat adrenal ACAT; final concentration 5.2 μg/ml
row,Compound,% Inhibition
1,"1-[(4-Butylphenyl)methyl]-1-[6-[(methylsulfonyl)oxy]-hexyl]-3-[(2,4,5-trimethylphenyl)methyl]urea",90.0%

# Same assay, conditions: rat adrenal ACAT; final concentration 5.2 μg/ml; read-out: % Inhibition
row,Compound,inhibition at 5.2 µg/mL
1,"CCCCN(Cc1ccccc1)C(=O)Nc1c(C)cc(C)cc1C [1-Benzyl-1-( -n-butyl)-3-(2,4,6-trimethylphenyl)urea]",75.8%
2,"CCCCc1ccc(CN(CCCC)C(=O)Nc2ccc(C)cc2C)cc1 [1-( -n-Butyl)-1-(4- -n-butylbenzyl)-3-(2,4-dimethylphenyl)urea]",94.4%
3,"CCCCN(Cc1c(Cl)cccc1Cl)C(=O)Nc1ccc(C)cc1C [1-( -n-Butyl)-1-(2,6-dichlorobenzyl)-3-(2,4-dimethylphenyl)urea]",74.5%
4,"CCCCN(Cc1ccc(Cl)cc1)C(=O)Nc1ccc(C)cc1C [1-(n-Butyl)-1-(4-chlorobenzyl)-3-(2,4-dimethylphenyl)urea]",94.6%
5,"CCCCCCCN(C(=O)Nc1cc(C)c(C)cc1C)c1ccco1 [1-(n-Heptyl)-1-(2-furyl)-3-(2,4,5-trimethylphenyl)urea]",93.8%
6,"CCCCN(Cc1ccccc1Cl)C(=O)Nc1ccc(C)cc1C [1-( -n-Butyl)-1-(2-chlorobenzyl)-3-(2,4-dimethylphenyl)urea]",95.5%
7,CCCCN(Cc1ccccc1)C(=O)Nc1cccc(Cl)c1O [1-(n-Butyl)-1-benzyl-3-(3-chloro-2-hydroxyphenyl)urea],71%
8,CCCCN(Cc1ccccc1)C(=O)Nc1ccccc1[N+](=O)[O-] [1-(n-Butyl)-1-benzyl-3-(2-nitrophenyl)urea],37%
9,"CCCCN(Cc1ccccc1)C(=O)Nc1cc(Cl)c(N)c(Cl)c1 [1-(n-Butyl)-1-benzyl-3-(4-amino-3,5-dichlorophenyl)urea]",61.1%
10,"CCCCN(Cc1ccc(OC)cc1)C(=O)Nc1ccc(C)cc1C [1-(n-Butyl)-1-(4-methoxybenzyl)-3-(2,4-dimethylphenyl)urea]",94.2%
11,"CCCCN(Cc1ccc(-c2ccccc2)cc1)C(=O)Nc1ccc(C)cc1C [1-(n-Butyl)-1-(4-phenylbenzyl)-3-(2,4-dimethylphenyl)urea]",97.1%
12,"Cc1ccc(CCN(Cc2ccc3c(c2)OCO3)C(=O)Nc2ccc(C)cc2C)cc1 [1-(3,4-Methylenedioxybenzyl)-1-[2-(4-methylphenyl)ethyl]-3-(2,4-dimethylphenyl)urea]",41.2%
13,CCCCN(Cc1ccccc1)C(=O)Nc1cc(Cl)ccc1O [1-(n-Butyl)-1-benzyl-3-(2-hydroxy-5-chlorophenyl)urea],85.6%
14,"Cc1ccc(NC(=O)N(CCC(c2ccccc2)c2ccccc2)c2ccc3c(c2)OCO3)c(C)c1 [1-(3,4-Methylenedioxyphenyl)-1-(3,3-diphenylpropyl)-3-(2,4-dimethylphenyl)urea]",87.8%
15,"CCCCN(Cc1ccc(C(C)(C)C)cc1)C(=O)Nc1ccc(C)cc1C [1-(n-Butyl)-1-(4-tert-butylbenzyl)-3-(2,4-dimethylphenyl)urea]",96.4%
16,"CCCCN(Cc1ccc2c(c1)OCO2)C(=O)Nc1ccc(C)cc1C [1-(n-Butyl)-1-(3,4-methylenedioxybenzyl)-3-(2,4-dimethylphenyl)urea]",88.2%
17,"CCCCN(CCc1ccccc1)C(=O)Nc1ccc(C)cc1C [1-(n-Butyl)-1-(2-phenylethyl)-3-(2,4-dimethylphenyl)urea]",87.9%

# Continued, values first:
row,inhibition at 5.2 µg/mL,Compound
1,84.5%,CCCCN(Cc1ccccc1)C(=O)Nc1cccc(Cl)c1OC [1-Benzyl-1-( -n-butyl)-3-(3-chloro-2-methoxyphenyl)urea]
2,92.3%,CCCCN(Cc1ccccc1)C(=O)Nc1cccc(C)c1 [1-Benzyl-1-( -n-butyl)-3-(3-methylphenyl)urea]
3,92%,O=C(Nc1ccc(Cl)cc1C(F)(F)F)N(Cc1ccccc1)C(Cc1ccccc1)c1ccc(OCc2ccccc2)cc1 (stereo not drawn) [1-Benzyl-1-[2-phenyl-1-(4-benzyloxyphenyl)ethyl]-3-(2-trifluoromethyl-4-chlorophenyl)urea]
4,88.1%,COc1cccc(C(Cc2ccccc2)N(Cc2ccccc2)C(=O)Nc2cccc(C(F)(F)F)c2)c1 (stereo not drawn) [1-Benzyl-1-[1-(3-methoxyphenyl)-2-phenylethyl]-3-(3-trifluoromethylphenyl)urea]
5,92.7%,"CCCCN(Cc1ccccc1)C(=O)Nc1cc(C)ccc1C [1-Benzyl-1-( -n-butyl)-3-(2,5-dimethylphenyl)urea]"
6,86.4%,"COc1cccc(C(Cc2ccccc2)N(Cc2ccccc2)C(=O)Nc2ccc(C)cc2C)c1 (stereo not drawn) [1-Benzyl-1-[1-(3-methoxyphenyl)-2-phenylethyl]-3-(2,4-dimethylphenyl)urea]"
7,85.7%,CCCCN(Cc1ccccc1)C(=O)Nc1cccc(C(F)(F)F)c1 [1-Benzyl-1-( -n-butyl)-3-(3-trifluoromethylphenyl)urea]
8,93.7%,"Cc1cc(C)c(NC(=O)N(Cc2ccccc2)C(Cc2ccccc2)c2ccc(OCc3ccccc3)cc2)cc1C (stereo not drawn) [1-Benzyl-1-[2-phenyl-1-(4-benzyloxyphenyl)ethyl]-3-(2,4,5-trimethylphenyl)urea]"
9,78.8%,CCCCN(Cc1ccccc1)C(=O)Nc1ccccc1C [1-Benzyl-1-( -n-butyl)-3-(2-methylphenyl)urea]
10,78%,CCCCN(Cc1ccccc1)C(=O)Nc1ccc(C)cc1 [1-Benzyl-1-( -n-butyl)-3-(4-methylphenyl)urea]
11,95%,"O=C(Nc1cc(Cl)c(Cl)cc1Cl)N(Cc1ccccc1)C(Cc1ccccc1)c1ccc(OCc2ccccc2)cc1 (stereo not drawn) [1-Benzyl-1-[2-phenyl-1-(4-benzyloxyphenyl)ethyl]-3-(2,4,5-trichlorophenyl)urea]"
12,87.1%,"CCCCN(Cc1ccccc1)C(=O)Nc1ccc(C)c(C)c1 [1-Benzyl-1-( -n-butyl)-3-(3,4-dimethylphenyl)urea]"
13,94.1%,"CCOc1ccc(CCN(Cc2ccccc2Cl)C(=O)Nc2ccc(C)cc2C)cc1 [1-[2-(4-Ethoxyphenyl)ethyl]-1-(2-chlorobenzyl)-3-(2,4-dimethylphenyl)urea]"
14,93%,"Cc1ccc(NC(=O)N(Cc2ccccc2)C(Cc2ccccc2)c2ccc(OCc3ccccc3)cc2)c(C)c1 (stereo not drawn) [1-Benzyl-1-[1-(4-benzyloxyphenyl)-2-phenylethyl]-3-(2,4-dimethylphenyl)urea]"
15,74%,O=C(Nc1cccc(C(F)(F)F)c1)N(Cc1ccccc1)C(Cc1ccccc1)c1ccc(OCc2ccccc2)cc1 (stereo not drawn) [1-Benzyl-1-[2-phenyl-1-(4-benzyloxyphenyl)ethyl]-3-(3-trifluoromethylphenyl)urea]

# Same assay, conditions: rat adrenal ACAT; several concentrations
row,IC50,Compound
1,1130 nM,"Cc1cc(Cl)cc(C)c1NC(=O)N(CCCCCC(C)O)Cc1ccc(CC(C)(C)C)cc1 (stereo not drawn) [1-(6-Hydroxyheptyl)-1-[4-(2,2-dimethylpropyl)benzyl]-3-(4-chloro-2,6-dimethylphenyl)urea]"
